One experiment has as its target T1, ULK3 (Homo sapiens, UniProt Q6PHR2).
T1 construct: DNA label for qPCR read-out (T7 phage fusion or DNA tag); purchased Eurofins DiscoverX Corporation; host or cells: T7 phage in E. coli (BL21-derived) or HEK-293
T1 sequence (Q6PHR2 1-472): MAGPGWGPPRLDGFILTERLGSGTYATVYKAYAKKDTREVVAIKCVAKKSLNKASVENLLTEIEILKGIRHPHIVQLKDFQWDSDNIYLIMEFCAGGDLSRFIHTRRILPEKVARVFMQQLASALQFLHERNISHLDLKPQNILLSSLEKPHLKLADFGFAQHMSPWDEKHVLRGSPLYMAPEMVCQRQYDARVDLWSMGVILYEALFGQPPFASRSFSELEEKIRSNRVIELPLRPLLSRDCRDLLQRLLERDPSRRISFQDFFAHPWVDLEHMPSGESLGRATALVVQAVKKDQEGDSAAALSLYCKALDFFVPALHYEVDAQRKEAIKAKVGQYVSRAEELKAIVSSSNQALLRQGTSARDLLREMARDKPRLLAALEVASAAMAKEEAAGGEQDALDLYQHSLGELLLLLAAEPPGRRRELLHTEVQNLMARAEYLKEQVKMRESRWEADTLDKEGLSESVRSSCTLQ
Put plainly: KINOMEscan competition binding, ULK3. The note with it: 10 µM compound; for remaining binding at 10 µM: lower = stronger binding, read-out: ULK3 %Ctrl @ 10000nM (POC). The method, then:
(§1) The KINOMEscan screening platform (Eurofins DiscoverX Corporation) was performed using active site-directed competition binding assay to quantitatively measure interactions between BK40143 and BK40197 and more than 450 human kinases and disease relevant mutant variants. […] Screening “hits” are identified by measuring the amount of kinase captured in test (BK40143 and BK40197) versus control samples by using a quantitative and ultra-sensitive qRT-PCR method that detects the associated DNA label. BK40143 and BK40197 were screened at 10 µM concentration, and results for primary screen binding interactions were reported as “% Ctrl” (POC), where lower numbers indicate stronger hits and calculated as follows: [test compound signal−positive control signal/negative control signal−positive control signal]×100
(§2) negative control = DMSO (100% Ctrl)
(§3) positive control = control compound (0% Ctrl)
(§4) Based on screening data from of profiled compounds, a proportional relationship between primary screening results and corresponding compound/target affinities can be described as binding constants (Kd values) for the indicated ranges of POC values with tighter binding (higher affinity) interactions associated with lower POC values and weaker binding (lower affinity) associated with higher POC values. Briefly, kinase-tagged T7 phage strains were grown in parallel in 24-well blocks in an E. coli host derived from the BL21 strain. E. coli were grown to log-phase and infected with T7 phage from a frozen stock (multiplicity of infection = 0.4) and incubated with shaking at 32°C until lysis (90–150 min). The lysates were centrifuged (6,000g) and filtered (0.2 μm) to remove cell debris. The remaining kinases were produced in HEK-293 cells and subsequently tagged with DNA for qRT-PCR detection. Streptavidin-coated magnetic beads were treated with biotinylated small molecule ligands for 30 min at RT to generate affinity resins for kinase assays. The liganded beads were blocked with excess biotin and washed with blocking buffer (1% BSA, 0.05% Tween 20, 1 mM DTT; SeaBlock [Pierce]) to remove unbound ligand and to reduce non-specific phage binding. Binding reactions were assembled by combining kinases, liganded affinity beads, and test compounds in 1x binding buffer (20% 0.17x PBS, 0.05% Tween 20, 6 mM DTT; SeaBlock). Test compounds were prepared as 100x stocks in 100% DMSO and directly diluted into the assay. All reactions were performed in polypropylene 384-well plates in a final volume of 0.02 ml. The assay plates were incubated at RT with shaking for 1 h and the affinity beads were washed with wash buffer (1x PBS, 0.05% Tween 20). […] The kinase concentration in the eluates was measured by qRT-PCR.

Another experiment has as its target T2, PIKFYVE (Homo sapiens, UniProt Q9Y2I7).
T2 construct: DNA label for qPCR read-out (T7 phage fusion or DNA tag); purchased Eurofins DiscoverX Corporation; host or cells: T7 phage in E. coli (BL21-derived) or HEK-293
Nature of the experiment: KINOMEscan competition binding, PIKFYVE. The note with it: 10 µM compound; for remaining binding at 10 µM: lower = stronger binding, read-out: PIKFYVE %Ctrl @ 10000nM (POC). The procedure: as §1, §2, §3, §4

In a further experiment the test system is TgAPP mice. Nature of the experiment: Novel object recognition, TgAPP mice. The settings on record: BK40143 5 mg/kg, BK40197 45 mg/kg IP, 6 wk, vs DMSO. It is filed as in vivo, mouse. The method, then:
(§5) Novel object recognition was carried out using a 50 × 50 cm arena with clear walls covered by brown construction paper. Mice were habituated to the room for 30 min each day, before being allowed to freely explore the arena for 5 min two times, for 3 d. On the 4th d, two identical objects were placed in the arena in opposite adjacent corners, 10 cm from the corner of the arena. Mice were placed along the wall opposite from the objects and allowed to freely explore for 10 min. Approach behavior (extending nose toward the object) toward both objects was recorded manually using handheld stop watches and compared with ensure there was no preference for either neutral object. For the probe trial, one object was removed and replaced with a novel object, and mice were again allowed to freely explore for 10 min, with approach time towards the novel and familiar objects recorded. Trials in which the mice explored for less than 1 s were excluded. Discrimination index was calculated by dividing time spent exploring the novel object by total time exploring both objects and was compared for treated versus control animals.

A further experiment deals with mice. Put plainly: Novel object recognition, source data sheet NOR (mouse line not given). The settings on record: for Familiarization: A (exploration of object A) / Familiarization: B (exploration of object B) / Familiarization: DI / Familiarization: Total / Probe: DI (Discrimination Index: Novel / Total) / Probe: Familiar / Probe: Novel / Probe: Total: individual mice; for Probe DI: Discrimination Index: Novel / Total; for Probe DI / Familiarization Total / Familiarization B / Familiarization DI / Probe Familiar / Probe Total / Probe Novel / % Difference: one value per mouse; for Familiarization Total / Familiarization B / Familiarization DI / Probe Familiar / Probe Total / Probe Novel: novel object recognition; for Familiarization Total: A + B; for Familiarization B: object B; for Probe Familiar: familiar object; for Probe Total: novel + familiar; for Probe Novel: novel object; for % Difference: probe DI minus familiarization DI, Exclude trials where mice explored <1s. Set-up: key to Probe: DI (Discrimination Index: Novel / Total) / Familiarization: DI / Familiarization: DI, group mean / Familiarization DI: DI = novel-object exploration time / total exploration time of both objects; Familiarization: Total / Familiarization B / Familiarization Total: unit not given here. It counts as in vivo. The procedure:
as §5

Structures are written as SMILES. “And” between values parts separate entries of the source, which are not always exact repeats. Equal entries are not always repeated.

T2 sequence (Q9Y2I7 whole entry, the tested form may be a part): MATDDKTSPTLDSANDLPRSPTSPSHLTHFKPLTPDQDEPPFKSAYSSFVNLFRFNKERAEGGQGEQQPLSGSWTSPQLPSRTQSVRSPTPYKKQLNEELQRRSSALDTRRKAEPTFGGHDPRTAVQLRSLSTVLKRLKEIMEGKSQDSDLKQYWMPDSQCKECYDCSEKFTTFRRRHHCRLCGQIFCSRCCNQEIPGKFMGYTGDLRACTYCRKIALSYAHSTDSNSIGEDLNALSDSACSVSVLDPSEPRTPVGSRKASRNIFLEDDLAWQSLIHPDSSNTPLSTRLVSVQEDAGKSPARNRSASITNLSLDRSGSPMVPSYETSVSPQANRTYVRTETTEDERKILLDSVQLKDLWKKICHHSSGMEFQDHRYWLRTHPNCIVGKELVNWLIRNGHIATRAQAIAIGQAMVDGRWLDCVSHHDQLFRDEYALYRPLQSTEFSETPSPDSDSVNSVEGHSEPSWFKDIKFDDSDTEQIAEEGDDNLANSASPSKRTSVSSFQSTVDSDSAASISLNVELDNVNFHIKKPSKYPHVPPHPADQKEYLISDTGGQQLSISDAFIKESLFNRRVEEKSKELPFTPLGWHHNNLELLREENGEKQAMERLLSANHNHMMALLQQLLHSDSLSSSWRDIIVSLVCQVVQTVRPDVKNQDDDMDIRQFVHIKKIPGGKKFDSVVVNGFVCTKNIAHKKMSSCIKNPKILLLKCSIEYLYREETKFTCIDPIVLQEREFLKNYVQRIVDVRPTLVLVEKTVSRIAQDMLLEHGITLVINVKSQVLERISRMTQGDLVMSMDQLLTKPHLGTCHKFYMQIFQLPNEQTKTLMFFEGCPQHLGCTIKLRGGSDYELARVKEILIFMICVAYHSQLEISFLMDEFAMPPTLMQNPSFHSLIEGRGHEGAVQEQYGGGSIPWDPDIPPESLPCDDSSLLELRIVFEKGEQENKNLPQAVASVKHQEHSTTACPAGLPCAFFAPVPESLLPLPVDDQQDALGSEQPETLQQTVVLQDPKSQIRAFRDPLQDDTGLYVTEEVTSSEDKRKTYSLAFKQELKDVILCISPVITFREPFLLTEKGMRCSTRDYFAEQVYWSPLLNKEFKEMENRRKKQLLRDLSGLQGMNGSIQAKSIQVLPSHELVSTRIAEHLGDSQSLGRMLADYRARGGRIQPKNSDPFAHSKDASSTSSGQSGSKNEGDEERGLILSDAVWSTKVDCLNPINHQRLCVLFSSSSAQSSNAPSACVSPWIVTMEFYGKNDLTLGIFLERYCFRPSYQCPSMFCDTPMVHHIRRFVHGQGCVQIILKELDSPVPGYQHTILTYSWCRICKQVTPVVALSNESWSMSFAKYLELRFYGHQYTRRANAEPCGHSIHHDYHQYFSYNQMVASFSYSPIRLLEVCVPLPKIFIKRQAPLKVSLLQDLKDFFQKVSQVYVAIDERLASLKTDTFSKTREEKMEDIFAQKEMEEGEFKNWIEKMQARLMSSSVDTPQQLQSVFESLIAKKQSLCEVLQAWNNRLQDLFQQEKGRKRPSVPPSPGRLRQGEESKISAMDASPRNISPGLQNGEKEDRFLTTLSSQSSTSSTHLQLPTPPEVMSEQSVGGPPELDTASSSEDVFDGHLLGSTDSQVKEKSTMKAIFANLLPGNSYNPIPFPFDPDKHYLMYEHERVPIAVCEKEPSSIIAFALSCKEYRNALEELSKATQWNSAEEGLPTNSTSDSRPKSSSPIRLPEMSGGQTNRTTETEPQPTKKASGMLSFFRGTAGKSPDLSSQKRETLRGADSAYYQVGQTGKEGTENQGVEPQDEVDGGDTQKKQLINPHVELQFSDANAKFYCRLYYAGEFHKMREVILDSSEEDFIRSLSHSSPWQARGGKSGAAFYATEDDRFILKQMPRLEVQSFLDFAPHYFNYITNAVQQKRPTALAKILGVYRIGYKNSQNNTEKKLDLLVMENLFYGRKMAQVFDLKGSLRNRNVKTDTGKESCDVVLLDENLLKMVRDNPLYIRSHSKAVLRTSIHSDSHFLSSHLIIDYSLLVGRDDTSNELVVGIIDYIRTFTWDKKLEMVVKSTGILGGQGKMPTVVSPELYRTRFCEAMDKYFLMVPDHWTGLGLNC

On to `Cc1cccc(-c2cc3nccc(Nc4ccccc4)c3s2)c1` [BK40143], for which, on ULK3, the inhibition at 10 µM stood at 90.2% and the remaining binding at 10 µM is 9.8%. For the same compound, at PIKFYVE, the inhibition at 10 µM was determined as 32% and the remaining binding at 10 µM amounted to 68%. In addition, the “novel object recognition: time exploring the novel object” value with TgAPP mice is given as “spent significantly greater amounts of time exploring the novel object”. Besides, in the experiment on mice (2.5mg/kg), the “Familiarization: DI, group mean” value was determined as 0.4194 and the “Probe: DI, group mean” value came to 0.6322. Further, in the experiment with mice (2.5mg/kg, listed as 143), the “Familiarization: A (exploration of object A)” value is 79.74 and 23.94 and 6.51 and 4.1 and 1.73 and 91.39 and 3.94; the “Familiarization: B (exploration of object B)” value is 36.19 and 20.07 and 19.62 and 23.82 and 2.46 and 58.89 and 9.8; the “Familiarization: DI” value is 0.6878 and 0.544 and 0.2491 and 0.1468 and 0.4129 and 0.6081 and 0.2868; the “Familiarization: Total” value is 115.93 and 44.01 and 26.13 and 27.92 and 4.19 and 150.28 and 13.74. For the same compound, in the experiment on mice (2.5mg/kg, listed as 143), the “Probe: DI (Discrimination Index: Novel / Total)” value is 0.6527 and 0.5219 and 0.7012 and 0.6866 and 0 and 0.6684 and 0.5624; the “Probe: Familiar” value was 12.56 and 26.64 and 26.04 and 10.96 and 0.71 and 19.02 and 21.52; the “Probe: Novel” value was 23.6 and 29.08 and 61.12 and 24.01 and 0 and 38.34 and 27.66; the “Probe: Total” value was 36.16 and 55.72 and 87.16 and 34.97 and 0.71 and 57.36 and 49.18. Further, in the experiment with mice (5.0mg/kg), the “Familiarization: DI, group mean” value amounted to 0.4517 and the “Probe: DI, group mean” value came out at 0.5431. In the experiment with mice (5.0mg/kg, listed as 143), the “Familiarization: A (exploration of object A)” value was 6.57 and 57.74 and 55.12 and 0 and 31.22 and 2.26 and 24.68 and 3.81; the “Familiarization: B (exploration of object B)” value is 6.09 and 45.42 and 59.49 and 0 and 28.62 and 34.43 and 1.4 and 35.06 and 3.14; the “Familiarization: DI” value is 0.519 and 0.5597 and 0.4809 and 0 and 0.4756 and 0.6175 and 0.4131 and 0.5482; the “Familiarization: Total” value was 12.66 and 103.16 and 114.61 and 0 and 28.62 and 65.65 and 3.66 and 59.74 and 6.95. In the experiment with mice (5.0mg/kg, listed as 143), the “Probe: DI (Discrimination Index: Novel / Total)” value was 0.5491 and 0.4762 and 0.6019 and 0.4523 and 0.4543 and 0.6392 and 0.6671 and 0.5538 and 0.5229 and 0.5147; the “Probe: Familiar” value was 31.58 and 54.9 and 31.99 and 22.78 and 6.63 and 10.02 and 2.44 and 2.49 and 12.81 and 27.34; the “Probe: Novel” value is 38.46 and 49.91 and 48.36 and 18.81 and 5.52 and 17.75 and 4.89 and 3.09 and 14.04 and 29; the “Probe: Total” value was 70.04 and 104.81 and 80.35 and 41.59 and 12.15 and 27.77 and 7.33 and 5.58 and 26.85 and 56.34. Also, in the experiment on mice (listed as 143), the “Probe DI” value was 0.8287 and 0.6842 and 0.7687 and 1 and 0 and 0.615 and 0.4318 and 0.5747 and 0.1499 and 0.6797; the “Familiarization Total” value was 4.02 and 1.72 and 5.39 and 2.97 and 7.23 and 16.69 and 3.49 and 11.99 and 18.68 and 5.99; the “Familiarization B” value was 4.02 and 0.91 and 0.51 and 1.41 and 5.2 and 7.29 and 2.89 and 7.23 and 11.16 and 3.62; the “Familiarization DI” value was 0 and 0.4709 and 0.9054 and 0.5253 and 0.2808 and 0.5632 and 0.1719 and 0.397 and 0.4026 and 0.3957. In addition, in the experiment on mice (listed as 143), the “Probe Familiar” value was 0.62 and 0.78 and 0.31 and 0 and 0.83 and 2.41 and 0.5 and 20.09 and 39.82 and 2.04; the “Probe Total” value was 3.62 and 2.47 and 1.34 and 5.82 and 0.83 and 6.26 and 0.88 and 47.24 and 46.84 and 6.37; the “Probe Novel” value was 3 and 1.69 and 1.03 and 5.82 and 0 and 3.85 and 0.38 and 27.15 and 7.02 and 4.33; the “% Difference” value is 82.8729% and 21.328% and -13.6724% and 47.4747% and 5.18% and 17.7727% and 28.4089%.

On to `Cc1cccc(-c2cc3nccc(N4CCOCC4)c3s2)c1` [BK40197], for which, on ULK3, testing at 10 µM gave an inhibition of 93.9% and the remaining binding at 10 µM was found to be 6.1%. At PIKFYVE, at 10 µM the inhibition was 99.6% and the remaining binding at 10 µM came to 0.4%. The “novel object recognition: time exploring the novel object” value in the experiment with TgAPP mice is listed as “spent significantly greater amounts of time exploring the novel object”. For the same compound, in the experiment on mice (listed as 197), the “Probe DI” value was 0.7189 and 0.4276 and 0.6036 and 0 and 0.3497 and 0.7629 and 0.5645; the “Familiarization Total” value was 6.07 and 3.17 and 0.72 and 1.59 and 2.09 and 99.73 and 4.98 and 1.54 and 46.43; the “Familiarization B” value is 4.54 and 2.11 and 0 and 0.44 and 2.09 and 67.09 and 3.73 and 0.91 and 31.96; the “Familiarization DI” value was 0.2521 and 0.3344 and 1 and 0.7233 and 0 and 0.3273 and 0.251 and 0.4091 and 0.3117. For the same compound, in the experiment with mice (listed as 197), the “Probe Familiar” value is 3.8 and 3.44 and 1.78 and 0.31 and 0 and 59.03 and 0.92 and 1.62; the “Probe Total” value is 13.52 and 6.01 and 4.49 and 0.31 and 0 and 90.78 and 3.88 and 3.72; the “Probe Novel” value is 9.72 and 2.57 and 2.71 and 0 and 31.75 and 2.96 and 2.1; the “% Difference” value was 46.6876% and 9.324% and -39.6437% and 2.2463% and 51.1883% and 15.5425%.

One may read the inhibition as how much of the control response was suppressed.

(Values after publication PMC11249953, “c-KIT inhibitors reduce pathology and improve behavior in the Tg(SwDI) model of Alzheimer’s disease” (Life Science Alliance, 2024).)
